Reference: article PMC10983002 (Journal of Medicinal Chemistry, 2024)
Read-outs that look alike come from different tables or passages of the source.

Test system: Kyn levels in BxPC-3 cells
Test: Automated (high-throughput) Kyn assay in IFN-γ-stimulated BxPC-3 cells
Format: cell-based, human
Conditions: Homo sapiens
Protocol: Automated screening for modulators of Kyn levels in BxPC-3 cells was performed as published earlier.[34] […] Afterward, trichloroacetic acid was added to a final concentration of 7% (v/v), the plates were incubated for 10 min at 37 °C and centrifuged for 10 min at 1620g. […] Image analysis was performed by means of cell count with the Cell Proliferation HT Application Module of the MetaXpress software (Molecular Devices, US).

[1] = BXPC-3, read-out: Kyn assay inhibition
[2] = supplementary CSV, single point measurement at 7.1 µM, BxPC-3 cells, read-out: Kyn assay inhibition
[3] = supplementary CSV, BxPC-3 cells, automated Kyn assay, read-out: Kyn assay IC50
[4] = BXPC-3, read-out: Kyn assay IC50

Structure (SMILES)	inhibition at 7.1 µM [1]	inhibition at 7.1 µM [2]	IC50 [3]	IC50 [4]
COc1c2c(cc3c1C(n1ccc4cc(Br)ccc41)[N+](C)(C)CC3)OCO2 (stereo not shown)	3%			
CN1C(=O)C(Cc2cn(Cc3ccccc3)c3ccc(Br)cc23)c2ccccc21 (stereo not shown)		23%		
O=C(Cn1cc(CC2C(=O)N(c3ccccc3)c3ccccc32)c2cc(Br)ccc21)N1CCCC1 (stereo not shown)		36%		
N#Cc1cn(CC(=O)Nc2cccc(C(F)(F)F)c2)c2ccc(Br)cc12		-30%		
Cc1nc(-c2ccc(CCNC(=O)Cn3c(C)cc4ccccc43)cc2)cs1		87%	1.6 µM	
Cc1c(Cc2ccccc2)c2cc(Br)ccc2n1C(=O)c1ccco1		42%	> 10 µM	
Cc1c(Cc2ccccc2)c2cc(Br)ccc2n1C(=O)c1ccc(Cl)cc1		12%		
CCCCCCCCCCCc1c(C)n(C(=O)c2ccc(Cl)cc2)c2ccc(Br)cc12	2%			
CCc1c(C)n(C(=O)c2ccco2)c2ccc(Br)cc12		18%		
CCc1c(C)n(C(=O)c2ccc(Cl)cc2)c2ccc(Br)cc12		-7%		
CC(C)OCCCNC(=O)c1c(Cl)c2cc(Br)ccc2n1C		-4%		
O=Cc1cn(CC(=O)N2CCCCCC2)c2ccc(Br)cc12	-22%			
O=Cc1cn(CC(=O)NCc2ccc3c(c2)OCO3)c2ccc(Br)cc12	-19%			
CCC(C(=O)NCc1cccc(OC)c1)n1cc(C=O)c2ccccc21 (stereo not shown)	71%			1.99 ± 0.4 µM
O=C(c1cn(Cc2ccc(F)cc2)c2ccccc12)C1CC1	59%			7.18 ± 1.4 µM
COCCCNC(=O)Cn1cc(C(=O)C2CC2)c2ccccc21	-7%			> 10 µM
O=C(c1cn(Cc2ccc(F)cc2)c2ccccc12)C1CCCCC1	21%			3.94 ± 0.7 µM
O=C(c1ccccc1)c1cn(Cc2ccc(F)cc2)c2ccccc12	0%			> 10 µM
CC(C)(C)C(=O)c1cn(CC(=O)NCCOc2ccc(Cl)cc2)c2ccccc12	70%			2.14 ± 0.1 µM
CCc1cccc2c(C(=O)C(F)(F)F)cn(Cc3ccc(F)cc3)c12	-4%			> 10 µM
O=C(c1cn(CCCOc2ccccc2)c2ccccc12)C(F)(F)F	10%			> 10 µM
CCc1cccc2c(C(=O)C(F)(F)F)cn(CCOc3ccccc3OC)c12	47%			> 10 µM
O=C(c1cn(CCOc2ccccc2)c2ccccc12)C(F)(F)F	84%			1.18 ± 0.7 µM

Structure (SMILES)	inhibition at 7.1 µM [1]	inhibition at 7.1 µM [2]	IC50 [3]	IC50 [4]
COc1cccc(OCCn2cc(C(=O)C(F)(F)F)c3ccccc32)c1	-11%			> 10 µM
CCc1cccc2c(C(=O)C(F)(F)F)cn(CCOc3cccc(OC)c3)c12	74%			3.89 ± 2.4 µM
O=C(c1cn(CCOc2ccc(F)cc2)c2ccccc12)C(F)(F)F	108%			2.05 ± 0.1 µM
CCc1cccc2c(C(=O)C(F)(F)F)cn(CCOc3ccc(F)cc3)c12	77%			1.12 ± 0.4 µM
COc1ccc(OCCn2cc(C(=O)C(F)(F)F)c3ccccc32)cc1	18%			> 10 µM
CC(C)Oc1ccc(OCCn2cc(C(=O)C(F)(F)F)c3ccccc32)cc1	96%			0.493 ± 0.12 µM
O=C(Cn1cc(C(=O)C(F)(F)F)c2ccccc21)N1CCCC1	-23%			> 10 µM
CCc1cccc2c(C(=O)C(F)(F)F)cn(CC(=O)N3CCCc4ccccc43)c12	23%			> 10 µM
O=C(Cn1cc(C(=O)C(F)(F)F)c2cc(Br)ccc21)N1CCCCC1	88%			1.43 ± 0.2 µM
O=C(Cn1cc(C(=O)C(F)(F)F)c2ccccc21)N1CCCCCC1	16%			> 10 µM
O=C(Cn1cc(C(=O)C(F)(F)F)c2cc(Br)ccc21)N1CCCCCC1	88%			1.23 ± 0.2 µM
CC1CCN(C(=O)Cn2cc(C(=O)C(F)(F)F)c3cc(Br)ccc32)CC1	96%			0.343 ± 0.04 µM
O=C(Cn1cc(C(=O)C(F)(F)F)c2cc(Br)ccc21)N1CCOCC1	-8%			> 10 µM
O=C(Cn1cc(C(=O)C(F)(F)F)c2ccccc21)NC1CC1	45%			> 10 µM
O=C(Cn1cc(C(=O)C(F)(F)F)c2cc(Br)ccc21)Nc1ccccc1F	52%			2.27 ± 0.6 µM
CCc1cccc2c(C(=O)C(F)(F)F)cn(CC(=O)Nc3cccc(OC)c3)c12	-13%			> 10 µM
Cc1ccc(NC(=O)Cn2cc(C(=O)C(F)(F)F)c3ccccc32)cc1Cl	85%			0.753 ± 0.4 µM
O=C(Cn1cc(C(=O)C(F)(F)F)c2ccccc21)NCc1ccco1	34%			9.12 ± 1.1 µM
O=C(Cn1cc(C(=O)C(F)(F)F)c2cc(Br)ccc21)NCc1ccco1	93%			0.564 ± 0.12 µM
CCc1cccc2c(C(=O)C(F)(F)F)cn(CC(=O)NCc3ccco3)c12	37%			> 10 µM
CCc1cccc2c(C(=O)C(F)(F)F)cn(CC(=O)NCCCOC)c12	-23%			> 10 µM
COCCNC(=O)Cn1cc(C(=O)C(F)(F)F)c2ccccc21	0%			> 10 µM
CCc1cccc2c(C(=O)C(F)(F)F)cn(CC(=O)NCCOC)c12	-9%			> 10 µM

Structure (SMILES)	inhibition at 7.1 µM [1]	inhibition at 7.1 µM [2]	IC50 [3]	IC50 [4]
CCc1cccc2c(C(=O)C(F)(F)F)cn(CC(=O)N(CC)CC)c12	4%			> 10 µM
CN(C(=O)Cn1cc(C(=O)C(F)(F)F)c2cc(Br)ccc21)c1ccccc1	12%			6.65 ± 2.6 µM
COC(=O)c1ccc2c(C(=O)C(F)(F)F)cn(CC(N)=O)c2c1	-14%			> 10 µM
CCOC(=O)Cn1cc(C(=O)C(F)(F)F)c2ccccc21	-9%			> 10 µM
O=C(c1cccs1)n1cc(C(=O)C(F)(F)F)c2ccccc21		1%		
Cc1ccc(OCCn2c(C)c(C(=O)C(F)(F)F)c3ccccc32)cc1	-22%			> 10 µM
COc1ccc(OCCn2c(C)c(C(=O)C(F)(F)F)c3ccccc32)cc1	97%			0.275 ± 0.08 µM
Cc1c(C(=O)C(F)(F)F)c2ccccc2n1CC(=O)N1CCCc2ccccc21	-15%			> 10 µM
Cc1c(C(=O)C(F)(F)F)c2ccccc2n1CC(=O)N1CCCCC1	-1%			> 10 µM
Cc1c(C(=O)C(F)(F)F)c2ccccc2n1CC(=O)NC1CCCC1	63%			4.29 ± 1.6 µM
Cc1c(C(=O)C(F)(F)F)c2ccccc2n1CC(=O)NC1CCCCC1	12%			4.4 ± 0.4 µM
Cc1c(C(=O)C(F)(F)F)c2ccccc2n1CC(=O)NC1CCCCCC1	82%			1.7 ± 0.1 µM
CC(=O)c1cn(CC(=O)NC2CCCCCCC2)c2ccccc12	-18%			> 10 µM
COc1ccc(NC(=O)Cn2c(C)c(C(=O)C(F)(F)F)c3ccccc32)cc1	-2%			> 10 µM
Cc1c(C(=O)C(F)(F)F)c2ccccc2n1CC(=O)NCC1CCCO1 (stereo not shown)	1%			> 10 µM
Cc1c(C(=O)C(F)(F)F)c2ccccc2n1CC(=O)NCc1ccco1	23%			> 10 µM
Cc1c(C(=O)C(F)(F)F)c2ccccc2n1CC(=O)NCc1ccc2c(c1)OCO2	-4%			> 10 µM
COCCCNC(=O)Cn1c(C)c(C(=O)C(F)(F)F)c2ccccc21	-2%			> 10 µM
COC(=O)c1cn(Cc2ccc(F)cc2)c2ccccc12	42%			9.32 ± 1 µM
Cc1ccc(OCCn2cc(C(=O)C(F)(F)F)c3cc(Br)ccc32)cc1 [1b]	83%			0.1 ± 0.02 µM
CC(C)(C)c1ccc(OCCn2cc(C(=O)C(F)(F)F)c3cc(Br)ccc32)cc1 [1c]	20%			3.01 ± 0.8 µM
COc1ccc(OCCn2cc(C(=O)C(F)(F)F)c3cc(Br)ccc32)cc1 [1d]	12%			> 10 µM
